# Counter-ions that a name gives are not always drawn.
# Experiments:
# colon of Beagle dogs = test: Gastrointestinal motility activity in conscious dog; assay type: in vivo; conditions: within 2 hours after administration
# Description: Beagle dogs of a male were anesthetized with pentobarbital, and the abdominal cavity was opened, and force transducers (F-121S; manufactured by Star Medical Inc.) were sutured onto the seromuscular layer of the colon to make it possible to measure circular muscle contractions. Three or four force transducer were sutured onto in the colon from the lower part to the upper part at regular intervals. The lead wires from the transducers were brought out outside the body through a skin incision made between the scapulae, and were protected in a package of a jacket protector. The gastrointestinal motility activity was measured 2 or 3 weeks after the operation. The lead wires from the force transducers were connected with a telemeter system (DAS-800T: manufactured by Star Medical Inc.), and the gastrointestinal motility activity was analyzed by a personal computer system being connected therewith and recorded. A test compound was suspended in a 0.5% tragacanth solution, and administered via a cannula to be placed in the stomach to the dogs, which were one hour or more after feeding. The measurement was continued for 2 hours after the administration of test compounds.
# The number of dogs showing Giant Migrating Contraction (GMC) and defecation within 2 hours after the administration of a test compound is indicated in Table 4.
# mice of Std-ddY strain = test: Assay on defecation in mice; assay type: in vivo; set-up: key: −: Inactive; +: Moderately stimulated (P < 0.05); ++: Markedly stimulated (p < 0.01); conditions: fecal pellet weight vs control, Dunnett's test
# Description: Male mice of Std-ddY strain weighing 25-30 g were used. Free access to food and water was allowed up to the beginning of the procedure. The mice (each group: five mice) were placed in a mesh bottom cage for fasting, and they were allowed for acclimation to the new environment for about one hour prior to the start of the experiment. A test compound, which was previously suspended in a 0.5% tragacanth solution, was administered orally to the mice. The fecal pellets were collected at 30, 60 and 120 minutes after the treatment of a test compound, and weighed. The statistical judgment of efficacy was carried out between the control group (treated with a 0.5% tragacanth solution) and the test compound-treated group, and determined by Dunnett's test.
# [1] = system: guinea pigs of Std-Hartley strain; test: Effect on electrocardiogram in guinea pigs (QTc); assay type: in vivo, guinea pig; conditions: anesthetized guinea pigs, iv infusion for 15 minutes, maximum dose 30 mg/kg
# Description: Male guinea pigs of Std-Hartley strain weighing 350-500 g were anesthetized with urethan (1.5 g/kg, ip). […] RR (second): time from the peak of R-wave to the peak of the next R-wave in electrocardiogram (usually, expressed by “second”). […] Consequently, as an index for evaluating the effects on the heart, a dose to be required to prolong the QTc intervals by 5% of the electrocardiogram (ED5%) in guinea pigs was measured, which has widely been used.
# Dopamine D2 receptor = target: T1, Dopamine D2 receptor (Rattus norvegicus, UniProt P61169); test: Dopamine D2 receptor binding assay ([3H]spiperone); conditions: rat brain crude synaptosome membrane fractions
# T1 construct: Crude synaptosome membrane fractions from rat brain was used as a receptor membrane fraction; from tissue; host or cells: rat brain crude synaptosome membrane fraction
# T1 sequence (P61169 whole entry): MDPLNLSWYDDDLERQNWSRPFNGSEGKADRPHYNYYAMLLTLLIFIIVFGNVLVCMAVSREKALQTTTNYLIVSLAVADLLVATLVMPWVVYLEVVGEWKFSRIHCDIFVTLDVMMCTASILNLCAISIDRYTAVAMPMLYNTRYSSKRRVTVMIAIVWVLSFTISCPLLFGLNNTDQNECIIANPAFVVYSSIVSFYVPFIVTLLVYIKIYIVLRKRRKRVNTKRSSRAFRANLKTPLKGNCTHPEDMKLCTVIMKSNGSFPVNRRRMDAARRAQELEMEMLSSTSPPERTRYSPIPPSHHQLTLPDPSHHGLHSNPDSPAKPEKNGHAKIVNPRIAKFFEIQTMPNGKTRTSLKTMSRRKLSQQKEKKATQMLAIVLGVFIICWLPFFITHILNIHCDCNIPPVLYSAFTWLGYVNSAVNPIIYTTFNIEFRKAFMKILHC
# Description: Dopamine D2 receptor binding assay and the preparation of receptor membrane fractions therefor were carried out according to a modified method of the method of Creese, I. et al., Eur. J. Pharmacol., 46, 337 (1977) and Peroutka, S. J. and Hamik, A., Eur. J. Pharmacol., 148, 297 (1988).
# Crude synaptosome membrane fractions from rat brain was used as a receptor membrane fraction, and [^3H]spiperone (D2) was used as a labeled ligand. A buffer (final volume: 1 ml) containing a receptor membrane fraction and a labelled ligand therefor was incubated for a prescribed period in the presence of a test compound in various concentrations, and the radioactive ligand binding to the receptor was separated on the filter paper using a cell harvester (manufactured by Brandel). The radioactivity on the filter was determined by a liquid scintillation counter, and the total binding of the ligand to the receptor was determined. On the other hand, the non-specific binding was determined in the presence of an excess amount of non-labeled ligand (spiperone (D2)), and the specific binding was obtained by subtracting the non-specific binding from the total binding.
# Acute toxicity = conditions: male, Std-ddY, mouse, in vivo; mice, intravenous, observed for 7 days
# Description: Male mice of Std-ddY strain weighing 25-30 g were used in a group of 5 or more animals. A test compound was suspended in physiological saline solution or a 1% lactose solution and administered intravenously to the mice.
# [2] = target: T2, Serotonin 4 (5-HT4) receptor (Cavia porcellus, UniProt O70528); test: Serotonin 4 (5-HT4) receptor binding assay ([3H]-GR113808); conditions: guinea pig striatum membrane fractions, 0.1 nM [3H]-GR113808
# T2 construct: from tissue; host or cells: guinea pig (Std-Hartley) brain striatum membrane fraction
# T2 sequence (O70528 whole entry): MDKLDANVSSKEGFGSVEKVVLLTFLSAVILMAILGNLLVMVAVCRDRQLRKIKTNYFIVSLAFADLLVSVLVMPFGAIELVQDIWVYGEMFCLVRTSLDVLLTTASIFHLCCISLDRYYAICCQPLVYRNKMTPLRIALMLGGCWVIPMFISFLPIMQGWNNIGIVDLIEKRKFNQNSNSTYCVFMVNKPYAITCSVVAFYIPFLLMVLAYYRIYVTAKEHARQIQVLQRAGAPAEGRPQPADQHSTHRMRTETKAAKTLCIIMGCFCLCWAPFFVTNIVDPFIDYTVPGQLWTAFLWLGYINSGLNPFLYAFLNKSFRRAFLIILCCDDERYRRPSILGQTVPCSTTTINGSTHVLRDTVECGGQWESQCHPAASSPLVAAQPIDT
# Description: Std-Hartley guinea pigs weighing 300-400 g were decapitated, and the brain thereof was immediately taken out, and the striatum was dissected.
# Prior to the filtration, the filter to be used was presoaked in a 0.1% solution of polyethylenimine for one hour.
SMILES,Effect (defecation in mice) (mice of Std-ddY strain; 3.0 mg/kg oral),"ED5%, iv (dose required to prolong the QTc intervals by 5%) [1]",Effect (defecation in mice) (mice of Std-ddY strain; 1.0 mg/kg oral),other results
"COc1cc(N)c(Cl)cc1C(=O)NC1CCN(CC2CCN(C(=O)C3CCOCC3)CC2)CC1 (as salt: fumarate) (hydrate or solvate) [Compound A, 4-amino-5-chloro-2-methoxy-N-[1-[1-(4-tetrahydropyranylcarbonyl)-4-piperidinylmethyl]-4-piperidinyl]benzamide.fumarate.1/4 hydrate]",,,,melting point: 235 to 237 °C
"COc1cc(N)c(Cl)cc1C(=O)NC1CCN(CC2CCN(C(=O)c3ccco3)CC2)CC1 (as salt: fumarate) (hydrate or solvate) [Compound B, 4-amino-5-chloro-N-[1-[1-(2-furoyl)-4-piperidinyl-methyl]-4-piperidinyl]-2-methoxybenzamide.fumarate.1/2 hydrate]",,,,melting point: 179 to 181 °C
"COc1cc(N)c(Cl)cc1C(=O)N[C@H]1CCN(CCCOc2ccc(F)cc2)C[C@H]1OC (relative stereo) [Cisapride, cis-4-amino-5-chloro-N-[1-[3-(4-fluorophenoxy)propyl]-3-methoxy-4-piperidinyl]-2-methoxybenzamide]",−,0.3 mg/kg,,Number of dogs which showed defecation/total number of dogs to be tested (colon of Beagle dogs; 10 mg/kg intragastric): 1/7; Number to dogs which showed GMC/total number of dogs to be tested (colon of Beagle dogs; 10 mg/kg intragastric): 1/7; Effect (defecation in mice) (mice of Std-ddY strain; 30 mg/kg oral): −
"COc1cc(N)c(Cl)cc1C(=O)NC1CCN(CC2CCN(C(=O)[C@@H]3CCCO3)CC2)CC1 [Compound 2, (S)-4-amino-5-chloro-2-methoxy-N-[1-[1-(2-tetrahydrofurylcarbonyl)-4-piperidinylmethyl]-4-piperidinyl]benzamide.fumarate]",++,24.9 mg/kg,++,IC50 (Dopamine D2 receptor): > 10000 nM; LD50 at 7 days (Acute toxicity): > 200 mg/kg; Number of dogs which showed defecation/total number of dogs to be tested (colon of Beagle dogs; 0.03 mg/kg intragastric): 1/4; Number to dogs which showed GMC/total number of dogs to be tested (colon of Beagle dogs; 0.03 mg/kg intragastric): 1/4; Number of dogs which showed defecation/total number of dogs to be tested (colon of Beagle dogs; 0.1 mg/kg intragastric): 2/5; Number to dogs which showed GMC/total number of dogs to be tested (colon of Beagle dogs; 0.1 mg/kg intragastric): 3/5; Number of dogs which showed defecation/total number of dogs to be tested (colon of Beagle dogs; 0.3 mg/kg intragastric): 3/5; Number to dogs which showed GMC/total number of dogs to be tested (colon of Beagle dogs; 0.3 mg/kg intragastric): 4/5; IC50 [2]: 13.5 nM
"COc1cc(N)c(Cl)cc1C(=O)NC1CCN(CC2CCN(C(=O)C3CCOCC3)CC2)CC1 [Compound A, 4-amino-5-chloro-2-methoxy-N-[1-[1-(4-tetrahydropyranylcarbonyl)-4-piperidinylmethyl]-4-piperidinyl]benzamide.fumarate.1/4 hydrate]",−,16.9 mg/kg,−,Effect (defecation in mice) (mice of Std-ddY strain; 10 mg/kg oral): ++
"COc1cc(N)c(Cl)cc1C(=O)NC1CCN(CC2CCN(C(=O)c3ccco3)CC2)CC1 [Compound B, 4-amino-5-chloro-N-[1-[1-(2-furoyl)-4-piperidinyl-methyl]-4-piperidinyl]-2-methoxybenzamide.fumarate.1/2 hydrate]",+,3.2 mg/kg,+,Effect (defecation in mice) (mice of Std-ddY strain; 10 mg/kg oral): ++
"COc1cc(N)c(Cl)cc1C(=O)NC1CCN(CC2CCN(C(=O)C3CCOC3)CC2)CC1.O=C(O)/C=C/C(=O)O (stereo not shown) [Compound C, 4-amino-5-chloro-2-methoxy-N-[1-[1-(3-tetrahydrofurylcarbonyl)-4-piperidinyl-methyl]-4-piperidinyl]benzamide.fumarate]",++,9.4 mg/kg,+,
"COc1cc(N)c(Cl)cc1C(=O)NC1CCN(CC2CCN(C(=O)[C@H]3CCCO3)CC2)CC1 [Compound R, (R)-4-amino-5-chloro-2-methoxy-N-[1-[1-(2-tetrahydrofurylcarbonyl)-4-piperidinyl-methyl]-4-piperidinyl]benzamide.fumarate]",++,17.4 mg/kg,++,IC50 (Dopamine D2 receptor): 948 nM

# Source: patent publication US6696468B2, “(S)-4-AMINO-5-CHLORO-2-METHOXY-N-[1-[1-(2-TETRAHYDROFURYL-CARBONYL)-4-[…]]-4-[…]]BENZAMIDE, PROCESS FOR THE PREPARATION THEREOF, PHARMACEUTICAL COMPOSITION CONTAINING THE SAME, AND INTERMEDIATE THEREFOR” (priority 2002, dated 2004)
